Patent US11161815B2, “Hydrocarbylsulfonyl-substituted pyridines and their use in the treatment of cancer” (Oblique Therapeutics AB, priority 2017, dated 2021)

Legend:
[1] = biological target: gluthathione reductase (GR) (Homo sapiens (Human), UniProt P00390); test: Inhibition of recombinant GR (GSSG assay); format: biochemical; settings: 2 nM GR, 250 μM NADPH, 15 minutes incubation
Protocol: (§1) Small molecule inhibition of recombinant thioredoxin reductase 1 (TrxR1) and gluthathione reductase (GR) was examined in 96-well plate format. 30 nM TrxR1 was incubated in the presence of 250 μM NADPH, 0.1 mg/ml BSA, and various concentrations of compound (1% DMSO final) in 50 mM Tris (pH 7.5) and 2 mM EDTA buffer for 15 minutes. Following the incubation period, 2 mM DTNB was added to each well and the change in O.D. at 412 nm was followed. Percent activity was determined using DMSO vehicle and no TrxR1 (blank) controls. 2 nM GR was incubated in the presence of 250 μM NADPH, 0.1 mg/ml BSA, and various concentrations of compounds (1% DMSO final) in 50 mM Tris (pH 7.5) and 2 mM EDTA buffer for 15 minutes. Following the incubation period, 1 mM GSSG was added to each well and the change in O.D. at 340 nm was followed. Percent activity was determined using DMSO vehicle and no GR (blank) controls.

[2] = biological target: recombinant thioredoxin reductase 1 (TrxR1) (Homo sapiens (Human), UniProt Q16881); test: Inhibition of recombinant TrxR1 (DTNB assay); format: biochemical; settings: 30 nM TrxR1, 250 μM NADPH, 15 minutes incubation, read-out: TrxR Assay IC50
Chain of recombinant thioredoxin reductase 1 (TrxR1) (Q16881 151-649): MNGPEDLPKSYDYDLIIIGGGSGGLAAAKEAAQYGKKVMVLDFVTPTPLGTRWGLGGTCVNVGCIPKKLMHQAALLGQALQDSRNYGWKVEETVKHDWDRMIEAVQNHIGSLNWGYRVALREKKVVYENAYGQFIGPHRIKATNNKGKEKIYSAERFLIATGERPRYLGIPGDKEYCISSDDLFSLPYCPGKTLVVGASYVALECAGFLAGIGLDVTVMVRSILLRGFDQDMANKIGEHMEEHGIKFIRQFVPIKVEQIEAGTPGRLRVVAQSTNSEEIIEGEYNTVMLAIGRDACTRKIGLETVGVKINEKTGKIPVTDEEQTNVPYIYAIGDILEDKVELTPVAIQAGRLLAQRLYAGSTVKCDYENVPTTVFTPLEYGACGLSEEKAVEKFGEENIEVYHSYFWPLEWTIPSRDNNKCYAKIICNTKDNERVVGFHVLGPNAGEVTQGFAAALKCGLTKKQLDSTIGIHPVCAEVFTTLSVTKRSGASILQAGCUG
Protocol: as §1

[3] = test system: MDA-MB-231 cells; test: Breast cancer cell viability assay (Alamar Blue); format: cell-based; settings: Homo sapiens, 72 hrs, 10% FBS media containing 25 nM selenite
Protocol: (§2) MDA-MB-231 cells were plated 2000 cells/well in 96-well black optical plates in the presence of 10% FBS media containing 25 nM selenite. The following day cells were treated with various concentrations of compounds (0.1% DMSO final) and incubated for 72 hrs. After the incubation Alamar Blue reagent was added to each well and incubated for additional 3 hrs. Fluorescence was read ex:530 nm/em:590 nm, and percent of viability was determined using DMSO vehicle and no cell (blank) controls.

[4] = test system: U-87 MG; test: Cancer cell viability assay (MTT), U-87 MG; format: cell-based; settings: Homo sapiens, 72 hrs, 10% FBS media
Protocol: (§3) Breast cancer and glioblastoma cell lines were plated 4000 cells/well in 96-well plates in the presence of 10% FBS media. The following day cells were treated with various concentrations of the example compounds (0.1% DMSO final) and incubated for 72 hrs. After the incubation An MTT assay was performed to access cell viability. Percent of viability was determined using DMSO vehicle and no cell (blank) controls.

[5] = test system: MDA-MB-468; test: Cancer cell viability assay (MTT), MDA-MB-468; format: cell-based; settings: Homo sapiens, 72 hrs, 10% FBS media
Protocol: as §3

[6] = test system: MDA-MB-231; test: Cancer cell viability assay (MTT), MDA-MB-231; format: cell-based; settings: Homo sapiens, 72 hrs, 10% FBS media
Protocol: as §3

[7] = test system: FaDu cells; test: Head and neck cancer cell viability assay (Cell-Quanti Blue); format: cell-based; settings: Homo sapiens, 72 hrs, 10% FBS media containing 25 nM selenite
Protocol: as §2, with “FaDu” for “MDA-MB-231”, “the compound of Example 1” for “compounds”, “Cell-Quanti” for “Alamar”

Chain of gluthathione reductase (GR) (P00390 44-522): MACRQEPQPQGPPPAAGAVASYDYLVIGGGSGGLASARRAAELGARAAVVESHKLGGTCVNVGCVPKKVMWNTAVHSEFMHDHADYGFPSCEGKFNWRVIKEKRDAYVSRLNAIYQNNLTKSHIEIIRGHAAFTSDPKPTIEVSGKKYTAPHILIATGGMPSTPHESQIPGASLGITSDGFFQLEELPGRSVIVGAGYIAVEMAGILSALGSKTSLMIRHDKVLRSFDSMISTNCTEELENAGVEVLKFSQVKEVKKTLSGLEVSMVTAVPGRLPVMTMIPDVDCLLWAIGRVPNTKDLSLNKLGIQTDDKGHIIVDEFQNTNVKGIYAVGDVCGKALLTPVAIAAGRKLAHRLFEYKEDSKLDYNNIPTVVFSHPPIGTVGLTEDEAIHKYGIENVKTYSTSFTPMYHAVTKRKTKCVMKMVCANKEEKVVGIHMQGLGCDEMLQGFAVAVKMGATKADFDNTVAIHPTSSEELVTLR

Row | IC50 [1] [µM] | IC50 [2] [µM] | IC50 [3] [µM] | IC50 [4] [µM] | IC50 [5] [µM] | IC50 [6] [µM] | IC50 [7] [µM] | Compound
1 | > 100 | 0.0669 | 2.66 | – | – | – | – | COc1ccc([N+](=O)[O-])c(S(=O)(=O)CCc2cnccn2)n1 [Example 30, 2-(2-((6-methoxy-3-nitropyridin-2-yl)sulfonyl)ethyl)pyrazine]
2 | > 100 | 0.204 | – | 6 | 4.9 | 7.1 | – | COc1ccc([N+](=O)[O-])c(S(=O)(=O)C(C)C)n1 [Example 11, 2-(isopropylsulfonyl)-6-methoxy-3-nitropyridine]
3 | > 100 | 0.122 | 11.4 | 16.3 | 5.47 | 18.4 | – | COc1ccc([N+](=O)[O-])c(S(=O)(=O)CCNC(C)=O)n1 [Example 15, N-(2-((6-methoxy-3-nitropyridin-2-yl)sulfonyl)ethyl)acetamide]
4 | 18.1 | 0.0392 | – | – | – | – | 0.66 | O=[N+]([O-])c1ccc(Cl)nc1S(=O)(=O)Cc1ccccc1 [Example 4, 2-Benzylsulfonyl-6-chloro-3-nitropyridine]
5 | > 100 | 0.00152 | – | – | – | – | – | COc1ccc([N+](=O)[O-])c(S(=O)(=O)CCN2CCCCC2)n1 [Example 18, 6-methoxy-3-nitro-2-((2-(piperidin-1-yl)ethyl)sulfonyl)pyridine]
6 | > 100 | 0.124 | 2.95 | 5.95 | 3.16 | 5.12 | – | CCS(=O)(=O)c1nc(OC)ccc1[N+](=O)[O-] [Example 10, 2-(ethylsulfonyl)-6-methoxy-3-nitropyridine]
7 | > 100 | 0.103 | 12.5 | 19.5 | 9.77 | > 33 | – | COc1ccc([N+](=O)[O-])c(S(=O)(=O)CCCO)n1 [Example 17, 3-((6-methoxy-3-nitropyridin-2-yl)sulfonyl)propan-1-ol]
8 | > 100 | 0.0145 | – | – | – | – | – | COc1ccc([N+](=O)[O-])c(S(=O)(=O)Cc2ccc(C)cc2)n1 [Example 23, 6-methoxy-2-((4-methylbenzyl)sulfonyl)-3-nitropyridine]
9 | > 100 | 0.0188 | 5.22 | – | – | – | – | COc1ccc([N+](=O)[O-])c(S(=O)(=O)CCc2ccccc2)n1 [Example 26, 6-methoxy-3-nitro-2-(phenethylsulfonyl)pyridine]
10 | > 100 | 0.0123 | 4.51 | – | – | – | – | CCCCCCCCS(=O)(=O)c1nc(OC)ccc1[N+](=O)[O-] [Example 12, 6-methoxy-3-nitro-2-(octylsulfonyl)pyridine]
11 | – | – | – | – | – | – | 2.88 | CN(C)c1ccc([N+](=O)[O-])c(S(=O)(=O)Cc2ccccc2)n1 [Example 7, 2-Benzylsulfonyl-6-dimethylamino-3-nitropyridine]
12 | > 100 | 0.00733 | 7.13 | – | – | – | – | COc1ccc([N+](=O)[O-])c(S(=O)(=O)CCCc2ccccc2)n1 [Example 27, 6-methoxy-3-nitro-2-((3-phenylpropyl)sulfonyl)pyridine]
13 | – | 0.0765 | – | 2.48 | 0.64 | 1.42 | – | COc1ccc([N+](=O)[O-])c([S+]([O-])Cc2ccccc2)n1 (stereo not shown) [Example 32, 2-benzylsulfinyl-6-methoxy-3-nitro-pyridine]
14 | > 100 | 0.00103 | – | – | – | – | – | COc1ccc([N+](=O)[O-])c(S(=O)(=O)Cc2ccc(OC(F)(F)F)cc2)n1 [Example 25, 6-methoxy-3-nitro-2-((4-(trifluoromethoxy)benzyl)sulfonyl)pyridine]
15 | > 100 | 0.00678 | 4.36 | – | – | – | – | COc1ccc([N+](=O)[O-])c(S(=O)(=O)Cc2ccco2)n1 [Example 29, 2-((furan-2-ylmethyl)sulfonyl)-6-methoxy-3-nitropyridine]
16 | > 100 | 0.00716 | 3.2 | – | – | – | – | COc1ccc([N+](=O)[O-])c(S(=O)(=O)Cc2cccc(Cl)c2)n1 [Example 20, 2-((3-chlorobenzyl)sulfonyl)-6-methoxy-3-nitropyridine]

Row | IC50 [1] [µM] | IC50 [2] [µM] | IC50 [3] [µM] | IC50 [4] [µM] | IC50 [5] [µM] | IC50 [6] [µM] | IC50 [7] [µM] | Compound
17 | > 100 | 0.00435 | 4.1 | – | – | – | – | COc1ccc([N+](=O)[O-])c(S(=O)(=O)Cc2ccc(Cl)cc2)n1 [Example 21, 2-((4-chlorobenzyl)sulfonyl)-6-methoxy-3-nitropyridine]
18 | > 100 | 0.0253 | 3.5 | – | – | – | – | COc1ccc(CS(=O)(=O)c2nc(OC)ccc2[N+](=O)[O-])cc1 [Example 24, 6-methoxy-2-((4-methoxybenzyl)sulfonyl)-3-nitropyridine]
19 | > 100 | 1.03 | – | – | – | – | 3.65 | COc1ccc([N+](=O)[O-])c(S(=O)(=O)C2CCCC2)n1 [Example 2, 2-Cyclopentylsulfonyl-6-methoxy-3-nitropyridine]
20 | > 100 | 0.131 | – | 6.22 | 3.23 | 3.51 | – | CC[S+]([O-])c1nc(OC)ccc1[N+](=O)[O-] (stereo not shown) [Example 31, 2-Ethanesulfinyl-6-methoxy-3-nitro-pyridine]
21 | > 100 | 0.188 | – | – | – | – | 6.97 | CN(C)c1ccc([N+](=O)[O-])c(S(=O)(=O)C2CCCC2)n1 [Example 8, 2-Cyclopentylsulfonyl-6-dimethylamino-3-nitropyridine]
22 | 85.4 | 0.5 | – | 9.25 | 1.85 | 3.84 | – | CCCCCCCC[S+]([O-])c1nc(OC)ccc1[N+](=O)[O-] (stereo not shown) [Example 33, 6-Methoxy-3-nitro-2-octylsulfinyl-pyridine]
23 | 60.5 | 0.181 | – | – | – | – | 1.01 | O=[N+]([O-])c1ccc(Cl)nc1S(=O)(=O)C1CCCC1 [Example 5, 6-Chloro-2-(cyclopentylsulfonyl)-3-nitropyridine]
24 | > 100 | 0.0969 | 5.6 | 7.52 | 3.88 | 7.73 | – | COc1ccc([N+](=O)[O-])c(S(=O)(=O)CCCCC(F)(F)F)n1 [Example 14, 6-methoxy-3-nitro-2-((5,5,5-trifluoropentyl)sulfonyl)pyridine]
25 | > 100 | 0.0076 | 1.8 | – | – | – | – | COc1ccc([N+](=O)[O-])c(S(=O)(=O)Cc2ccccc2Cl)n1 [Example 19, 2-((2-chlorobenzyl)sulfonyl)-6-methoxy-3-nitropyridine]
26 | > 100 | 0.16 | – | 6.92 | 4.68 | 5.91 | – | COc1ccc([N+](=O)[O-])c(S(=O)(=O)C2CC2)n1 [Example 13, 2-(cyclopropylsulfonyl)-6-methoxy-3-nitropyridine]
27 | > 100 | 0.0203 | 5.24 | – | – | – | – | COc1ccc([N+](=O)[O-])c(S(=O)(=O)CCOc2ccccc2)n1 [Example 28, 6-methoxy-3-nitro-2-((2-phenoxyethyl)sulfonyl)pyridine]
28 | > 100 | 0.0606 | 8.09 | 5.23 | 3.9 | 4.9 | – | COC(=O)CCS(=O)(=O)c1nc(OC)ccc1[N+](=O)[O-] [Example 16, methyl 3-((6-methoxy-3-nitropyridin-2-yl)sulfonyl)propanoate]
29 | > 100 | 0.00505 | 1.85 | – | – | – | – | COc1ccc([N+](=O)[O-])c(S(=O)(=O)Cc2ccc(F)cc2)n1 [Example 22, 2-((4-fluorobenzyl)sulfonyl)-6-methoxy-3-nitropyridine]
30 | 8.76 | 0.056 | – | – | – | – | 0.71 | CCCCCCS(=O)(=O)c1nc(Cl)ccc1[N+](=O)[O-] [Example 6, 6-Chloro-2-(hexylsulfonyl)-3-nitropyridine]
31 | > 100 | 0.333 | – | – | – | – | 12.7 | CCCCCCS(=O)(=O)c1nc(N(C)C)ccc1[N+](=O)[O-] [Example 9, 6-Dimethylamino-2-hexylsulfonyl-3-nitropyridine]
32 | > 100 | 0.489 | – | – | – | – | 0.45 | CCCCCCS(=O)(=O)c1nc(OC)ccc1[N+](=O)[O-] [Example 3, 2-Hexylsulfonyl-6-methoxy-3-nitropyridine]
